According to the NIST ThermoML archive (doi:10.1021/acs.jced.5b00049):

Experiment: xn = mol fraction of the nth substance listed
Settings: Liquid

CCCCCCCCCCCCCC [tetradecane] + O=C=O
Settings	mass density [kg/m3]
312.99 K, 19070 kPa, x2 = 0.7534	819.95
313 K, 15040 kPa, x2 = 0.7534	811.66
313.01 K, 17010 kPa, x2 = 0.7534	815.79
313.01 K, 18060 kPa, x2 = 0.7534	817.99
313.05 K, 10040 kPa, x2 = 0.7534	799.71
313.05 K, 11940 kPa, x2 = 0.7534	804.49
313.07 K, 10010 kPa, x2 = 0.2469	761.87
313.08 K, 12050 kPa, x2 = 0.2469	763.39
313.08 K, 13990 kPa, x2 = 0.2469	764.87
313.08 K, 16020 kPa, x2 = 0.2469	766.36
313.09 K, 18000 kPa, x2 = 0.2469	767.75
313.11 K, 19000 kPa, x2 = 0.2469	768.47
313.12 K, 13940 kPa, x2 = 0.7534	809.04
313.12 K, 19060 kPa, x2 = 0.8773	833.41
313.13 K, 16010 kPa, x2 = 0.7534	813.59
313.14 K, 13040 kPa, x2 = 0.7534	806.93
313.16 K, 11930 kPa, x2 = 0.5241	778.74
313.16 K, 19060 kPa, x2 = 0.5241	785.72
313.17 K, 12990 kPa, x2 = 0.8773	810.26
313.17 K, 13930 kPa, x2 = 0.5241	780.74
313.17 K, 14050 kPa, x2 = 0.8773	813.95
313.18 K, 16020 kPa, x2 = 0.8773	822.71
313.18 K, 17010 kPa, x2 = 0.8773	826.33
313.19 K, 9970 kPa, x2 = 0.8773	799.39
313.19 K, 10110 kPa, x2 = 0.5241	776.82
313.19 K, 18040 kPa, x2 = 0.8773	829.7
313.2 K, 11990 kPa, x2 = 0.8773	806.52
313.21 K, 18060 kPa, x2 = 0.5241	784.76
313.23 K, 15010 kPa, x2 = 0.8773	818.7
313.35 K, 16050 kPa, x2 = 0.5241	782.84
323.11 K, 10980 kPa, x2 = 0.8773	783.24
323.11 K, 14020 kPa, x2 = 0.2469	757.81
323.11 K, 19020 kPa, x2 = 0.8773	809.81
323.12 K, 16020 kPa, x2 = 0.2469	759.35
323.14 K, 10120 kPa, x2 = 0.2469	754.69
323.14 K, 12060 kPa, x2 = 0.2469	756.22
323.14 K, 13020 kPa, x2 = 0.8773	788.73
323.14 K, 14050 kPa, x2 = 0.8773	791.99
323.14 K, 16040 kPa, x2 = 0.8773	799.2
323.14 K, 17040 kPa, x2 = 0.8773	801.18
323.14 K, 18060 kPa, x2 = 0.8773	805.9
323.14 K, 18980 kPa, x2 = 0.2469	761.61
323.15 K, 10070 kPa, x2 = 0.7534	782.23
323.15 K, 12030 kPa, x2 = 0.7534	787.2
323.15 K, 12050 kPa, x2 = 0.8773	786.07
323.15 K, 13000 kPa, x2 = 0.7534	789.82
323.15 K, 14020 kPa, x2 = 0.7534	791.84
323.15 K, 15060 kPa, x2 = 0.7534	794.75
323.15 K, 16040 kPa, x2 = 0.7534	796.67
323.15 K, 17010 kPa, x2 = 0.7534	799.28
323.15 K, 18070 kPa, x2 = 0.7534	801.5
323.15 K, 19020 kPa, x2 = 0.7534	803.65
323.16 K, 15050 kPa, x2 = 0.8773	795.16
323.19 K, 17960 kPa, x2 = 0.2469	760.81
323.21 K, 16080 kPa, x2 = 0.5241	773.72
323.22 K, 18050 kPa, x2 = 0.5241	775.72
323.22 K, 19040 kPa, x2 = 0.5241	776.7
323.23 K, 10030 kPa, x2 = 0.5241	767.22
323.23 K, 12040 kPa, x2 = 0.5241	769.42
323.23 K, 13980 kPa, x2 = 0.5241	771.51
333.07 K, 10050 kPa, x2 = 0.7534	764.82
333.07 K, 14030 kPa, x2 = 0.7534	774.55
333.07 K, 17060 kPa, x2 = 0.7534	782.56
333.07 K, 18060 kPa, x2 = 0.7534	784.44
333.09 K, 10100 kPa, x2 = 0.5241	757.94
333.11 K, 13040 kPa, x2 = 0.7534	771.85
333.11 K, 16040 kPa, x2 = 0.2469	752.33
333.11 K, 18060 kPa, x2 = 0.5241	766.9
333.11 K, 18060 kPa, x2 = 0.8773	785.49
333.12 K, 15020 kPa, x2 = 0.7534	777.38
333.12 K, 16040 kPa, x2 = 0.7534	779.31
333.13 K, 10010 kPa, x2 = 0.2469	747.3
333.13 K, 13970 kPa, x2 = 0.2469	750.65
333.13 K, 19050 kPa, x2 = 0.8773	788.14
333.13 K, 19080 kPa, x2 = 0.5241	767.96
333.14 K, 16050 kPa, x2 = 0.8773	779.75
333.14 K, 17040 kPa, x2 = 0.8773	782.59
333.15 K, 11930 kPa, x2 = 0.5241	760.02
333.15 K, 12060 kPa, x2 = 0.2469	749.05
333.15 K, 15990 kPa, x2 = 0.5241	764.66
333.15 K, 17980 kPa, x2 = 0.2469	753.84
333.16 K, 18980 kPa, x2 = 0.2469	754.7
333.17 K, 12050 kPa, x2 = 0.7534	769.75
333.17 K, 19050 kPa, x2 = 0.7534	786.81
333.18 K, 14030 kPa, x2 = 0.8773	774.07
333.19 K, 13020 kPa, x2 = 0.8773	771.46
333.2 K, 13970 kPa, x2 = 0.5241	762.35
333.22 K, 15040 kPa, x2 = 0.8773	776.33
343.18 K, 13030 kPa, x2 = 0.7534	757.6
343.2 K, 14070 kPa, x2 = 0.7534	759.71
343.22 K, 10080 kPa, x2 = 0.5241	748.36
343.24 K, 18020 kPa, x2 = 0.2469	746.97
343.25 K, 10080 kPa, x2 = 0.2469	739.8
343.25 K, 12000 kPa, x2 = 0.2469	741.71
343.25 K, 13970 kPa, x2 = 0.5241	753.12
343.26 K, 11930 kPa, x2 = 0.5241	750.66
343.26 K, 17070 kPa, x2 = 0.8773	763.58
343.27 K, 16010 kPa, x2 = 0.2469	745.25
343.27 K, 19050 kPa, x2 = 0.2469	747.79
343.28 K, 16050 kPa, x2 = 0.8773	759.7
343.28 K, 18030 kPa, x2 = 0.7534	768.86
343.29 K, 11990 kPa, x2 = 0.7534	755.9
343.29 K, 15010 kPa, x2 = 0.8773	756.06
343.3 K, 18040 kPa, x2 = 0.8773	766.93
343.32 K, 15970 kPa, x2 = 0.7534	764.11
343.32 K, 19050 kPa, x2 = 0.8773	770.12
343.34 K, 14060 kPa, x2 = 0.2469	743.54
343.34 K, 16930 kPa, x2 = 0.7534	766.37
343.36 K, 18040 kPa, x2 = 0.5241	757.81
343.37 K, 15000 kPa, x2 = 0.7534	761.76
343.37 K, 15990 kPa, x2 = 0.5241	755.45
343.37 K, 19030 kPa, x2 = 0.7534	770.9
343.39 K, 19080 kPa, x2 = 0.5241	758.96
353.36 K, 9980 kPa, x2 = 0.5241	738.86
353.36 K, 12050 kPa, x2 = 0.7534	743.36
353.39 K, 11960 kPa, x2 = 0.5241	741.42
353.39 K, 17030 kPa, x2 = 0.7534	753.15
353.39 K, 18060 kPa, x2 = 0.5241	748.96
353.4 K, 18070 kPa, x2 = 0.2469	741.03
353.41 K, 13000 kPa, x2 = 0.7534	744.77
353.43 K, 11990 kPa, x2 = 0.2469	735.13
353.43 K, 14020 kPa, x2 = 0.5241	744.02
353.43 K, 16060 kPa, x2 = 0.5241	746.56
353.44 K, 19060 kPa, x2 = 0.5241	750.06
353.46 K, 15040 kPa, x2 = 0.7534	748.68
353.46 K, 15990 kPa, x2 = 0.7534	750.82
353.46 K, 18010 kPa, x2 = 0.8773	751.14
353.46 K, 18040 kPa, x2 = 0.7534	755.21
353.47 K, 14010 kPa, x2 = 0.7534	746.82
353.47 K, 19020 kPa, x2 = 0.2469	741.82
353.47 K, 19040 kPa, x2 = 0.8773	754.52
353.48 K, 9970 kPa, x2 = 0.2469	733.1
353.48 K, 14000 kPa, x2 = 0.2469	737.01
353.48 K, 17020 kPa, x2 = 0.8773	747.37
353.52 K, 16030 kPa, x2 = 0.2469	738.93
353.54 K, 18990 kPa, x2 = 0.7534	756.97
